# According to US9139532B2, “Pyrazolyl guanidine F1F0-atpase inhibitors and therapeutic uses thereof” (Lycera Corporation, priority 2010, dated 2015):
# Where two headings read alike, the source gives them in different places.
# Experiments:
# [1] = target: T1, F1F0-ATPase (Bos taurus, UniProt P13621); assay: Inhibition of F1F0-ATPase activity in synthesizing ATP; format: biochemical; settings: inhibition of ATP synthesis by F1F0-ATPase; read-out: ATP Syn IC50
# T1 construct: from tissue
# [2] = tested on: Ramos cells; assay: Cytotoxicity in Ramos cells; format: cell-based; settings: cytotoxicity in Ramos cells, read-out: Ramos Cell EC50
SMILES,IC50 [1] [µM],EC50 [2] [µM],EC50 ([2]; Homo sapiens) [µM]
CC(C)CN/C(=N/C(=O)c1ccc(F)cc1)Nc1cc(-c2ccc(Cl)cc2)n[nH]1 [Compound A-254],< 10,< 10,
CC(C)NC(=NC(=O)c1ccc(F)cc1)Nc1cc(-c2ccc(Cl)cc2)n[nH]1 [Compound A-255],< 10,,< 10
CCOCC(C)NC(=NC(=O)c1cccc(F)c1)Nc1cc(-c2ccc(F)cc2)n[nH]1 (centres unmarked) [Compound A-256],< 10,< 10,
CC(C)CN/C(=N/C(=O)c1cccc(F)c1)Nc1cc(-c2ccc(F)cc2)n[nH]1 [Compound A-257],< 10,< 10,
CCOCC(C)NC(=NC(=O)c1ccc(F)c(F)c1)Nc1cc(-c2ccc(Cl)cc2)n[nH]1 (centres unmarked) [Compound A-258],< 10,< 10,
CC(C)N/C(=N/C(=O)c1ccc(F)c(F)c1)Nc1cc(-c2ccc(F)cc2)n[nH]1 [Compound A-262],< 10,< 10,
CCOCC(C)NC(=NC(=O)c1ccc(F)c(F)c1)Nc1cc(-c2ccc(F)cc2)n[nH]1 (centres unmarked) [Compound A-263],< 10,< 10,
CCOC[C@H](C)NC(=NC(=O)c1ccc(Cl)cc1)Nc1cc(-c2ccc(F)cc2)n[nH]1 [Compound A-265],< 10,,< 10
CCOCC(C)N/C(=N/C(=O)c1ccc(F)c(F)c1)Nc1cc(-c2ccc(F)cc2)n[nH]1 (centres unmarked) [Compound A-267],< 10,< 10,
CCC(COC)N/C(=N/C(=O)c1ccc(F)c(F)c1)Nc1cc(-c2ccc(F)cc2)n[nH]1 (centres unmarked) [Compound A-268],< 10,< 10,
CCOCC(C)NC(=NC(=O)c1ccc(F)cc1)Nc1cc(-c2ccc(F)cc2)n[nH]1 (centres unmarked) [Compound A-269],< 10,< 10,
O=C(/N=C(/NCC1CCO1)Nc1cc(-c2ccc(F)cc2)n[nH]1)c1ccc(F)cc1 (centres unmarked) [Compound A-270],< 10,> 10,
CC(C)OCCN/C(=N/C(=O)c1ccc(F)cc1)Nc1cc(-c2ccc(F)cc2)n[nH]1 [Compound A-271],< 10,< 10,
COC[C@H](C)N/C(=N/C(=O)c1ccc(Cl)cc1)Nc1cc(-c2ccc(F)cc2)n[nH]1 [Compound A-272],< 10,,< 10
COCC(C)NC(=NC(=O)c1ccc(F)c(F)c1)Nc1cc(-c2ccc(F)cc2)n[nH]1 (centres unmarked) [Compound A-274],< 10,< 10,
COCC(C)NC(=NC(=O)c1ccc(F)cc1)Nc1cc(-c2cc(F)cc(F)c2)n[nH]1 (centres unmarked) [Compound A-275],< 10,< 10,
COCC(C)NC(=NC(=O)c1ccc(F)cc1)Nc1cc(-c2ccc(Cl)cc2)n[nH]1 (centres unmarked) [Compound A-276],< 10,< 10,
CCOCCCN/C(=N/C(=O)c1ccc(F)c(F)c1)Nc1cc(-c2ccc(Cl)cc2)n[nH]1 [Compound A-277],< 10,> 10,
CCOCCCNC(=NC(=O)c1ccc(Cl)cc1)Nc1cc(-c2ccc(F)cc2)n[nH]1 [Compound A-278],< 10,,> 10
CCOCCCN/C(=N/C(=O)c1cccc(F)c1)Nc1cc(-c2ccc(F)cc2)n[nH]1 [Compound A-279],< 10,< 10,

SMILES,IC50 [1] [µM],EC50 [2] [µM],EC50 ([2]; Homo sapiens) [µM]
CCOCCCN/C(=N/C(=O)c1ccc(F)cc1)Nc1cc(-c2ccc(F)cc2)n[nH]1 [Compound A-280],< 10,> 10,
CCOCCCN/C(=N/C(=O)c1ccc(C(F)(F)F)cc1)Nc1cc(-c2cc(F)cc(F)c2)n[nH]1 [Compound A-282],< 10,< 10,
O=C(N=C(NCc1ccc(F)cc1Cl)Nc1cc(-c2cc(F)cc(F)c2)n[nH]1)c1ccc(C(F)(F)F)cc1 [Compound A-292],< 10,,< 10
CC(C)CN/C(=N/C(=O)c1ccc(C(F)(F)F)cc1)Nc1cc(-c2cc(F)cc(F)c2)n[nH]1 [Compound A-293],< 10,< 10,
O=C(N=C(Nc1cc(-c2cc(F)cc(F)c2)n[nH]1)Nc1ccc(F)cc1Cl)c1ccc(C(F)(F)F)cc1 [Compound A-294],< 10,,> 10
CC(C)C(C)N/C(=N/C(=O)c1ccc(C(F)(F)F)cc1)Nc1cc(-c2cc(F)cc(F)c2)n[nH]1 (centres unmarked) [Compound A-295],< 10,< 10,
CC(C)NC(=NC(=O)c1ccc(C(F)(F)F)cc1)Nc1cc(-c2cc(F)cc(F)c2)n[nH]1 [Compound A-296],< 10,,< 10
CCC(C)NC(=NC(=O)c1ccc(C(F)(F)F)cc1)Nc1cc(-c2cc(F)cc(F)c2)n[nH]1 (centres unmarked) [Compound A-297],< 10,,< 10
CC(C)(C)N/C(=N/C(=O)c1ccc(C(F)(F)F)cc1)Nc1cc(-c2cc(F)cc(F)c2)n[nH]1 [Compound A-299],< 10,< 10,
CCC(C)CNC(=NC(=O)c1cccc(C#N)c1)Nc1cc(-c2ccc(Cl)cc2)n[nH]1 (centres unmarked) [Compound A-300],< 10,,< 10
CC(C)OCCCN/C(=N/C(=O)c1cccc(C#N)c1)Nc1cc(-c2ccc(Cl)cc2)n[nH]1 [Compound A-301],< 10,< 10,
CC(C)CNC(=NC(=O)c1cccc(C#N)c1)Nc1cc(-c2ccc(Cl)cc2)n[nH]1 [Compound A-303],< 10,,< 10
CC(C)C(C)N/C(=N/C(=O)c1cccc(C#N)c1)Nc1cc(-c2ccc(Cl)cc2)n[nH]1 (centres unmarked) [Compound A-304],< 10,< 10,
CC(C)NC(=NC(=O)c1cccc(C#N)c1)Nc1cc(-c2ccc(Cl)cc2)n[nH]1 [Compound A-305],< 10,,< 10
CCC(C)N/C(=N/C(=O)c1cccc(C#N)c1)Nc1cc(-c2ccc(Cl)cc2)n[nH]1 (centres unmarked) [Compound A-306],< 10,< 10,
CC(C)(C)N/C(=N/C(=O)c1cccc(C#N)c1)Nc1cc(-c2ccc(Cl)cc2)n[nH]1 [Compound A-308],< 10,< 10,
CC(C)CN/C(=N/C(=O)c1cccc(C#N)c1)Nc1cc(-c2cc(F)cc(F)c2)n[nH]1 [Compound A-310],< 10,< 10,
CC(C)C(C)N/C(=N/C(=O)c1cccc(C#N)c1)Nc1cc(-c2cc(F)cc(F)c2)n[nH]1 (centres unmarked) [Compound A-311],< 10,< 10,
CC(C)N/C(=N/C(=O)c1cccc(C#N)c1)Nc1cc(-c2cc(F)cc(F)c2)n[nH]1 [Compound A-312],< 10,< 10,
CCC(C)NC(=NC(=O)c1cccc(C#N)c1)Nc1cc(-c2cc(F)cc(F)c2)n[nH]1 (centres unmarked) [Compound A-313],< 10,,< 10

# Now from value to molecule, other results behind:
IC50 [1] [µM],SMILES,EC50 [2] [µM],EC50 ([2]; Homo sapiens) [µM]
< 10,O=C(/N=C(\Nc1cc(-c2ccc(Cl)cc2)n[nH]1)NC1CCCC1)c1ccc(F)cc1 [Compound A-253],< 10,
< 10,O=C(N=C(Nc1cc(-c2ccc(F)cc2)n[nH]1)NC1CCC1)c1ccc(F)c(F)c1 [Compound A-259],,< 10
< 10,O=C(/N=C(\Nc1cc(-c2ccc(F)cc2)n[nH]1)NC1CCCC1)c1ccc(F)c(F)c1 [Compound A-260],< 10,
< 10,CC(C)CN/C(=N/C(=O)c1ccc(F)c(F)c1)Nc1cc(-c2ccc(F)cc2)n[nH]1 [Compound A-261],< 10,
< 10,O=C(N=C(Nc1cc(-c2ccc(F)cc2)n[nH]1)NC1CCC1)c1ccc(Cl)cc1 [Compound A-264],,< 10
< 10,O=C(/N=C(/NCC1CCO1)Nc1cc(-c2ccc(F)cc2)n[nH]1)c1ccc(F)c(F)c1 (centres unmarked) [Compound A-266],< 10,
< 10,COCC(C)NC(=NC(=O)c1ccc(Cl)c(F)c1)Nc1cc(-c2cc(F)cc(F)c2)n[nH]1 (centres unmarked) [Compound A-273],< 10,
< 10,CCOCCCN/C(=N/C(=O)c1ccc(F)c(F)c1)Nc1cc(-c2ccc(C)c(F)c2)n[nH]1 [Compound A-281],< 10,
< 10,CC(C)OCCCNC(=NC(=O)c1ccc(F)c(F)c1)Nc1cc(-c2cc(F)cc(Cl)c2)n[nH]1 [Compound A-283],,< 10
< 10,O=C(/N=C(\Nc1cc(-c2cc(F)cc(Cl)c2)n[nH]1)NC1CCC1)c1ccc(F)c(F)c1 [Compound A-284],< 10,
< 10,CCC(C)NC(=NC(=O)c1ccc(F)c(F)c1)Nc1cc(-c2cc(F)cc(Cl)c2)n[nH]1 (centres unmarked) [Compound A-285],,< 10
< 10,CC(C)N/C(=N/C(=O)c1ccc(F)c(F)c1)Nc1cc(-c2cc(F)cc(Cl)c2)n[nH]1 [Compound A-286],< 10,
< 10,CC(C)CN/C(=N/C(=O)c1ccc(F)c(F)c1)Nc1cc(-c2cc(F)cc(Cl)c2)n[nH]1 [Compound A-287],< 10,
< 10,CC1(NC(=NC(=O)c2ccc(F)c(F)c2)Nc2cc(-c3cc(F)cc(Cl)c3)n[nH]2)CCCC1 [Compound A-288],,< 10
< 10,O=C(/N=C(\Nc1cc(-c2cc(F)cc(Cl)c2)n[nH]1)NC1CCCC1)c1ccc(F)c(F)c1 [Compound A-289],< 10,
< 10,CC(C)(C)N/C(=N/C(=O)c1ccc(F)c(F)c1)Nc1cc(-c2cc(F)cc(Cl)c2)n[nH]1 [Compound A-290],< 10,
< 10,O=C(/N=C(\Nc1cc(-c2cc(F)cc(F)c2)n[nH]1)NC1CCCC1)c1ccc(C(F)(F)F)cc1 [Compound A-291],< 10,
< 10,O=C(N=C(Nc1cc(-c2cc(F)cc(F)c2)n[nH]1)NC1CCC1)c1ccc(C(F)(F)F)cc1 [Compound A-298],,< 10
< 10,N#Cc1cccc(C(=O)/N=C(\Nc2cc(-c3ccc(Cl)cc3)n[nH]2)NC2CCCC2)c1 [Compound A-302],< 10,
< 10,N#Cc1cccc(C(=O)/N=C(\Nc2cc(-c3ccc(Cl)cc3)n[nH]2)NC2CCC2)c1 [Compound A-307],< 10,
< 10,N#Cc1cccc(C(=O)/N=C(\Nc2cc(-c3cc(F)cc(F)c3)n[nH]2)NC2CCCC2)c1 [Compound A-309],< 10,
